Reference: EPA's ToxValDB 9.5 (doi:10.2903/j.efsa.2006.54)

Columns and labels:
Aphidius rhopalosiphi = experiment: LR50; higher = less toxic; settings: not reported; mortality
Typhlodromus pyri = settings: not reported; reproduction
Daphnia magna = settings: chronic/long-term; duration: 21 days; reproduction
Anatidae = settings: short-term; oral; feed; mortality
Canidae = settings: chronic; duration: 2 years; oral; Dog Other; clinical chemistry
Apis mellifera = settings: acute, mortality

Compound: CCOP(=O)=O.CCOP(=O)=O.CCOP(=O)=O.[Al+3] [Fosetyl aluminum]
- LR50 (Aphidius rhopalosiphi): > 64000 g/ha
- LEL (Typhlodromus pyri): 15000 g/ha
- LD50 (acute, mortality): > 7080 mg/kg
- NOEC (reproductive, oral, feed): 439 mg/kg-day
- LC50 (Tagia sp.; acute, mortality): > 1000 mg/kg
- NOEC (Tagia sp.; chronic/long-term, reproduction): 1670 mg/kg
- NOEC (Daphnia magna): 17 mg/L
- LC50 (Anatidae): > 3540 mg/kg-day
- LC50 (Oncorhynchus mykiss; acute, duration: 96 hours, mortality): > 60 µg/mL
- NOEC (Oncorhynchus mykiss; chronic/long-term, duration: 28 days, growth): 100 mg/L
- NOAEL (Rattus norvegicus; chronic, duration: 2 years, oral, clinical chemistry): 300 mg/kg-day
- NOAEL (Rattus norvegicus; subchronic, duration: 90 days, histopathology: nonneoplastic): 500 mg/kg-day
- LD50 (Coturnix coturnix; acute, oral, mortality): 5000 mg/kg
- NOEC (Coturnix coturnix; reproduction developmental): 216 mg/kg-day
- NOAEL (Canidae): 300 mg/kg-day
- LD50 (Apis mellifera; dermal): > 1000 µg/piece
- LD50 (Apis mellifera; duration: 48 hours, oral, unspecified): 462 µg/piece
